In PubChem BioAssay (NCI):
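Compound exposure: 48 hours, 5 concentrations, 96-well plates. The concentration for full growth arrest is given as TGI.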

Assays:
Test in all cases: NCI anticancer screen, dose series, 48 h
RXF 393 renal = tested on: RXF 393 renal
UACC-62 melanoma = tested on: UACC-62 melanoma
UO-31 renal = tested on: UO-31 renal
TK-10 renal = tested on: TK-10 renal
NCI/ADR-RES ovarian = tested on: NCI/ADR-RES ovarian
SK-MEL-2 melanoma = tested on: SK-MEL-2 melanoma
MDA-MB-435 = tested on: MDA-MB-435
HCC-2998 colon = tested on: HCC-2998 colon
HOP-62 NSCLC = tested on: HOP-62 NSCLC
OVCAR-8 ovarian = tested on: OVCAR-8 ovarian
A498 renal = tested on: A498 renal
SNB-19 CNS = tested on: SNB-19 CNS
SK-MEL-28 melanoma = tested on: SK-MEL-28 melanoma
ACHN renal = tested on: ACHN renal
OVCAR-4 ovarian = tested on: OVCAR-4 ovarian
NCI-H226 lung = tested on: NCI-H226 lung
NCI-H23 lung = tested on: NCI-H23 lung
HS 578T breast = tested on: HS 578T breast
LOX IMVI melanoma = tested on: LOX IMVI melanoma
MDA-MB-231 breast = tested on: MDA-MB-231 breast
A549 NSCLC = tested on: A549 NSCLC
M14 melanoma = tested on: M14 melanoma
MALME-3M melanoma = tested on: MALME-3M melanoma
MOLT-4 leukemia = tested on: MOLT-4 leukemia
786-0 renal = tested on: 786-0 renal
EKVX NSCLC = tested on: EKVX NSCLC
K-562 leukemia = tested on: K-562 leukemia
DU-145 prostate = tested on: DU-145 prostate
SF-539 CNS = tested on: SF-539 CNS
CAKI-1 renal = tested on: CAKI-1 renal
SW-620 colon = tested on: SW-620 colon
SF-295 CNS = tested on: SF-295 CNS
MCF7 breast = tested on: MCF7 breast
U251 CNS = tested on: U251 CNS
OVCAR-3 ovarian = tested on: OVCAR-3 ovarian
RPMI-8226 leukemia = tested on: RPMI-8226 leukemia
SN12C renal = tested on: SN12C renal
OVCAR-5 ovarian = tested on: OVCAR-5 ovarian
SF-268 CNS = tested on: SF-268 CNS
PC-3 prostate = tested on: PC-3 prostate
HCT-15 colon = tested on: HCT-15 colon
HCT-116 colon = tested on: HCT-116 colon
HL-60(TB) leukemia = tested on: HL-60(TB) leukemia
BT-549 breast = tested on: BT-549 breast
NCI-H522 lung = tested on: NCI-H522 lung
IGROV1 ovarian = tested on: IGROV1 ovarian
MDA-N = tested on: MDA-N
KM12 colon = tested on: KM12 colon
SK-MEL-5 melanoma = tested on: SK-MEL-5 melanoma
CCRF-CEM leukemia = tested on: CCRF-CEM leukemia
HT29 colon = tested on: HT29 colon
NCI-H460 lung = tested on: NCI-H460 lung
SK-OV-3 ovarian = tested on: SK-OV-3 ovarian
SNB-75 CNS = tested on: SNB-75 CNS
COLO 205 colon = tested on: COLO 205 colon
T-47D breast = tested on: T-47D breast
UACC-257 melanoma = tested on: UACC-257 melanoma

Compound `CC(C)(CN1CCCCC1)C(/C=C/c1ccc(Cl)c(Cl)c1)=N\NC(=O)N/N=C(/C=C/c1ccc(Cl)c(Cl)c1)C(C)(C)CN1CCCCC1` has a TGI (RXF 393 renal) of 1.99 µM, a TGI (UACC-62 melanoma) of 3.4 µM and a TGI (UO-31 renal) of 5.56 µM. For the same compound, the TGI (TK-10 renal) was 3.08 µM, the TGI (NCI/ADR-RES ovarian) was 3.32 µM and the TGI (SK-MEL-2 melanoma) was over 10 µM. For the same compound, the TGI (MDA-MB-435) was 2.57 µM, the TGI (HCC-2998 colon) was 3.12 µM and the TGI (HOP-62 NSCLC) was 3.32 µM. It also gave a TGI (OVCAR-8 ovarian) of 3.38 µM, a TGI (A498 renal) of 3.11 µM and a TGI (SNB-19 CNS) of 3.22 µM. It also gave a TGI (SK-MEL-28 melanoma) of 3.16 µM, a TGI (ACHN renal) of 3.37 µM and a TGI (OVCAR-4 ovarian) of 3.19 µM. The TGI (NCI-H226 lung) was 4.1 µM, the TGI (NCI-H23 lung) was 3.4 µM and the TGI (HS 578T breast) was 3.39 µM. It also gave a TGI (LOX IMVI melanoma) of 2.5 µM, a TGI (MDA-MB-231 breast) of 3.71 µM and a TGI (A549 NSCLC) of 3.3 µM. The TGI (M14 melanoma) was 1.32 µM, the TGI (MALME-3M melanoma) was 2.95 µM and the TGI (MOLT-4 leukemia) was 8.74 µM. For the same compound, the TGI (786-0 renal) was 2.8 µM, the TGI (EKVX NSCLC) was 3.06 µM and the TGI (K-562 leukemia) was 0.876 µM. For the same compound, the TGI (DU-145 prostate) was 3.33 µM, the TGI (SF-539 CNS) was 3.25 µM and the TGI (CAKI-1 renal) was 3.16 µM. The TGI (SW-620 colon) was 3.13 µM, the TGI (SF-295 CNS) was 3.07 µM and the TGI (MCF7 breast) was 3.09 µM. For the same compound, the TGI (U251 CNS) was 3.13 µM, the TGI (OVCAR-3 ovarian) was 2.91 µM and the TGI (RPMI-8226 leukemia) was 9 µM. For the same compound, the TGI (SN12C renal) was 3.24 µM, the TGI (OVCAR-5 ovarian) was 2.97 µM and the TGI (SF-268 CNS) was 3.15 µM. It also gave a TGI (PC-3 prostate) of over 10 µM, a TGI (HCT-15 colon) of 2.56 µM and a TGI (HCT-116 colon) of 2.11 µM. The TGI (HL-60(TB) leukemia) was 3.25 µM, the TGI (BT-549 breast) was over 10 µM and the TGI (NCI-H522 lung) was 3.56 µM. It also gave a TGI (IGROV1 ovarian) of 3.64 µM, a TGI (MDA-N) of 2.75 µM and a TGI (KM12 colon) of 3.08 µM. The TGI (SK-MEL-5 melanoma) was 3.5 µM, the TGI (CCRF-CEM leukemia) was 3.45 µM and the TGI (HT29 colon) was 1.25 µM. For the same compound, the TGI (NCI-H460 lung) was 2.77 µM, the TGI (SK-OV-3 ovarian) was 3.33 µM and the TGI (SNB-75 CNS) was 3.12 µM. The TGI (COLO 205 colon) was 3.19 µM, the TGI (T-47D breast) was 4.1 µM and the TGI (UACC-257 melanoma) was 3.08 µM.
